Reference: patent US7678776B2, “Inclusion complexes of butylphthalide with cyclodextrin or its derivatives, a process for their preparation and the use thereof” (Shijiazhuang Pharma. Group Zhongqi Pharmaceutical …, priority 2002, dated 2010)

System: marginal ear vein of a rabbit
Assay: vascular irritation assay
Assay type: in vivo
Conditions: control group, administered into the ear vein for 3 days
Experimental: The vascular irritation assay using inclusion complex of butylphthalide with hydroxypropyl-β-cyclodextrin is provided as follows:
Eight rabbits were divided into two groups, namely, test group and control group. For the test group, 2.45 g/kg of the inclusion complex together with 40 ml of 5% glucose were instilled via the marginal ear vein of a rabbit at the rate of 1.5 ml/min. The administration was once per day and lasted for 3 days. […] The administration lasted for 3 days.

CC(=O)O [10% acetic acid, acetic acid]
vascular irritation (topical findings): topical hyperaemia, thickening, and exudation
